Experimental data taken from US20240425464A1, “Substituted Monohydrazides as Potent Antifungal Agents” (University of Kentucky Research Foundation, priority 2023, published 2024).
≈ marks a conversion by molar mass, not a printed value. Like-named read-outs stand apart in the source and are kept apart here.

Assays:
[1] = system: A. fumigatus NRRL 5109 (R); assay: MIC determination by in vitro antifungal assay; assay type: cell-based, Aspergillus fumigatus; details: Aspergillus fumigatus, NRRL5109; strain R = A. fumigatus NRRL 5109; read-out: MIC
Protocol: (§1) 10 mg/mL stock solutions of compounds 1a-9j were prepared in dimethyl sulfoxide (DMSO) and were stored at −20° C. in the dark. The antifungal agent amphotericin B (AmB) was purchased from VWR (Radnor PA, USA). AmB was dissolved in DMSO at a final concentration of 5 mg/mL and was stored at −20° C., protected from light. Candida albicans American Type Culture Collection (ATCC) 10231 (strain A), C. albicans ATCC 64124 (B), and C. albicans ATCC MYA-2876 (C) were obtained from Utah State University. C. albicans ATCC 90819 (D), C. albicans ATCC MYA-2310 (E), C. albicans ATCC MYA-1237 (F), C. albicans ATCC MYA-1003 (G), Candida glabrata ATCC 2001 (H), Candida krusei ATCC 6258 (I), Candida parapsilosis ATCC 22019 (J), Cryptococcus neoformans ATCC MYA-895 (M), Aspergillus terreus ATCC MYA-3633 (N), and Aspergillus flavus ATCC MYA-3631 (0) were obtained from the American Type Culture Collection (ATCC; Manassas, VA, USA). Aspergillus nidulans ATCC 38163 (P) was obtained from University of Kentucky. Clinically derived Aspergillus fumigatus NRRL 163 (Q), A. fumigatus NRRL 5109 (R), and A. fumigatus NRRL 6113 (S) were obtained from Northern Regional Research Laboratory (NRRL). Candida auris 384 (K), C. auris 390 (L), and fungal strains 381-400 (including 10 C. auris (AR Bank #381-390), 3 Candida duobushaemulonii (AR Bank #391, AR Bank #392, and AR Bank #394), 2 Candida haemulonii (AR Bank #393 and AR Bank #395), 1 Kodameae ohmeri (AR Bank #396), 1 C. krusei (AR Bank #397), 1 Candida lusitaniae (AR Bank #398), and 2 Saccharomyces cerevisiae strains (AR Bank #399 and AR Bank #400)) were part of a larger fungal library from the AR Bank maintained by the Centers for Disease Control and Prevention (CDC; Atlanta, GA, USA). Filamentous fungi and yeasts were cultivated at 35° C. in RPMI 1640 medium (with L-glutamine, without sodium bicarbonate, Sigma-Aldrich, St. Louis, MO) buffered to a pH of 7.0 with 0.165 M morpholinepropanesulfonic acid (MOPS) buffer (Sigma-Aldrich). For cytotoxicity assays, HepG2 and the mouse macrophage cell line J774A.1 were obtained from University of Kentucky. The human embryonic kidney cell line, HEK-293, was bought from the ATCC. Mammalian cells were grown in Dulbecco's Modified Eagle's Medium (DMEM) (from VWR) with 10% fetal bovine serum (FBS) (from VWR) and 1% Pen/Strep (from ATCC). Cell lines were cultured at 37° C. with 5% CO2 and passaged by trypsinization with 0.05% trypsin: 0.53 mM EDTA (from Sigma-Aldrich).
(§2) The MIC values of compounds 1a-9j against yeast cells (strains A-P and 381-400) were determined in 96-well plates as described in the CLSI documents M27-A3 and M38-A2 with minor modifications.^2 A single colony of freshly prepared yeast cells was used to inoculate 5 mL of yeast extract peptone dextrose (YPD) broth prior to incubation overnight with shaking at 200 rpm at 35° C. From the actively growing yeast culture, 100 µL were then transferred to 900 μL of RPMI 1640 medium and re-adjusted to achieve OD600 of 0.12 (˜1×10^6 CFU/mL). The cell suspension was further diluted to achieve 1:100 in RPMI 1640 medium. 100 μL of cells were added to the wells of a 96-well microtiter plates that contained 100 µL of the compound solution to obtain concentrations of 0.06-31.3 μg/mL of compounds 1a-9j or AmB prior to incubation for 48 h at 35° C.
(§3) Finally, the activity of these monohydrazides was explored against […] non-Candida strains: Cryptococcus neoformans ATCC MYA-895 (M), Aspergillus terreus ATCC MYA-3633 (N), Aspergillus flavus ATCC MYA-3631 (O), Aspergillus nidulans ATCC 38163 (P), Aspergillus fumigatus NRRL 163 (Q), A. fumigatus NRRL 5109 (R), and A. fumigatus NRRL 6113 (S) (Tables 1A and 1B). The double dilution method was used with concentrations ranging from 0.06 to 31.3 j·tg mL^−1 for monohydrazides 1a-9j, and the commercially available positive antifungal control amphotericin B (AmB).

[2] = system: A. fumigatus NRRL 6113 (S); assay: MIC determination by in vitro antifungal assay; assay type: cell-based, Aspergillus fumigatus; details: Aspergillus fumigatus, NRRL6113; strain S = A. fumigatus NRRL 6113; read-out: MIC
Protocol: as §1, §2, §3

[3] = system: Aspergillus nidulans ATCC 38163 (P); assay: MIC determination by in vitro antifungal assay; assay type: cell-based
Protocol: as §1, §2, §3

[4] = system: Aspergillus flavus ATCC MYA-3631 (O); assay: MIC determination by in vitro antifungal assay; assay type: cell-based; details: Aspergillus flavus; strain O = A. flavus ATCC MYA-3631; read-out: MIC
Protocol: as §1, §2, §3

[5] = system: Cryptococcus neoformans ATCC MYA-895 (M); assay: MIC determination by in vitro antifungal assay; assay type: cell-based; details: strain M = C. neoformans ATCC MYA-895
Protocol: as §1, §2, §3

[6] = system: Aspergillus fumigatus NRRL 163 (Q); assay: MIC determination by in vitro antifungal assay; assay type: cell-based; details: Aspergillus fumigatus, NRRL163; strain Q = A. fumigatus NRRL 163; read-out: MIC
Protocol: as §1, §2, §3

[7] = system: C. albicans ATCC 10231 (strain A); assay: MIC determination by in vitro antifungal assay (CLSI broth dilution); assay type: cell-based, Candida albicans; details: strain A = C. albicans ATCC 10231, no visible growth, 48 h at 35° C.
Protocol: as §1
(§4) The MIC values of compounds 1a-9j against yeast cells (strains A-P and 381-400) were determined in 96-well plates as described in the CLSI documents M27-A3 and M38-A2 with minor modifications.^2 A single colony of freshly prepared yeast cells was used to inoculate 5 mL of yeast extract peptone dextrose (YPD) broth prior to incubation overnight with shaking at 200 rpm at 35° C. From the actively growing yeast culture, 100 µL were then transferred to 900 μL of RPMI 1640 medium and re-adjusted to achieve OD600 of 0.12 (˜1×10^6 CFU/mL). The cell suspension was further diluted to achieve 1:100 in RPMI 1640 medium. 100 μL of cells were added to the wells of a 96-well microtiter plates that contained 100 µL of the compound solution to obtain concentrations of 0.06-31.3 μg/mL of compounds 1a-9j or AmB prior to incubation for 48 h at 35° C. […]

[8] = system: Candida glabrata ATCC 2001 (H); assay: MIC determination by in vitro antifungal assay; assay type: cell-based; details: ATCC 2001 in text
Protocol: as §1, §4

[9] = system: C. albicans ATCC 90819 (D); assay: MIC determination by in vitro antifungal assay; assay type: cell-based, Candida albicans
Protocol: as §1, §4

[10] = system: C. albicans ATCC MYA-1237 (F); assay: MIC determination by in vitro antifungal assay; assay type: cell-based, Candida albicans; details: strain F = C. albicans ATCC MYA-1237(R)
Protocol: as §1, §4

[11] = system: C. albicans ATCC MYA-2876 (C); assay: MIC determination by in vitro antifungal assay; assay type: cell-based, Candida albicans; details: strain C = C. albicans ATCC MYA-2876(S)
Protocol: as §1, §4

[12] = Candida albicans, read-out: MIC

With `O=C(NNc1ccc(F)cc1F)c1cccc(Br)n1` [Compound 6g] the MIC [1] was 31.3 µg/mL (≈ 95.4 µM), the MIC [2] was > 31.3 µg/mL and the MIC ([3]; Aspergillus nidulans, ATCC38163, strain P = A. nidulans ATCC 38163, read-out: MIC) was 3.9 µg/mL (≈ 11.9 µM). The MIC ([3]; strain P = A. nidulans ATCC 38163) was 1.95 μg/mL^−1, the MIC [4] was > 31.3 µg/mL and the MIC ([5]; Cryptococcus neoformans, read-out: MIC) was 0.98 µg/mL (≈ 2.99 µM). For the same compound, the MIC [5] was 0.49 μg/mL^−1, the MIC [6] was > 31.3 µg/mL and the MIC ([7]; Candida albicans, ATCC10231, 48 h, read-out: MIC) was 1.95 µg/mL (≈ 5.94 µM). The MIC [7] was 3.9 μg/mL^−1, the MIC ([8]; Nakaseomyces glabratus, ATCC 2001 / ATCC 2004, strain H = C. glabrata ATCC 2004 (footnote), read-out: MIC) was 7.8 µg/mL (≈ 23.8 µM) and the MIC ([8]; strain H = C. glabrata ATCC 2004 (footnote)) was 15.6 μg/mL^−1. The MIC ([9]; Candida albicans, ATCC90819, strain D = C. albicans ATCC 90819(R), read-out: MIC) was 1.95 µg/mL (≈ 5.94 µM), the MIC ([9]; strain D = C. albicans ATCC 90819(R)) was 3.9 μg/mL^−1 and the MIC [10, 12] was 0.98 µg/mL (≈ 2.99 µM). The MIC [10] was 1.95 μg/mL^−1, the MIC [11, 12] was 0.49 µg/mL (≈ 1.49 µM) and the MIC [11] was 0.98 μg/mL^−1.
